Reference: US10946027B2, “Tianeptine oxalate salts and polymorphs” (Tonix Pharma Holdings Limited, priority 2016, dated 2021)
Like-named read-outs stand apart in the source and are kept apart here.

With CN1c2ccccc2C(NCCCCCCC(=O)O)c2ccc(Cl)cc2S1(=O)=O.O=C(O)C(=O)O (centres unmarked) [Tianeptine mono-oxalate Form A, Tianeptine Mono-Oxalate Form A] the solid form stability (40-60° C., high humidity (75% RH)) was “started to convert into tianeptine hemi-oxalate Form A”, the solid form stability (milled without water) was “stable” and the solid form stability (stored at 25° C. and 60-75% RH) was “stable”. The solid form stability (stored at 40-60° C. without humidity (RH≈0%)) was “stable” and the solid form stability (water kneading) was “started to convert into tianeptine hemi-oxalate Form A”.
